ChEMBL document CHEMBL3797199, “Anti-gout nor-oleanane triterpenoids from the leaves of Stauntonia brachyanthera” (Bioorg Med Chem Lett, 2016)

Molecular target: Xanthine dehydrogenase/oxidase (Bos taurus, UniProt P80457)
Assay: Inhibition of bovine milk xanthine oxidase using xanthine as substrate preincubated for 15 mins followed by substrate addition by spectrophotometric method

Sequence of Xanthine dehydrogenase/oxidase (P80457 whole entry): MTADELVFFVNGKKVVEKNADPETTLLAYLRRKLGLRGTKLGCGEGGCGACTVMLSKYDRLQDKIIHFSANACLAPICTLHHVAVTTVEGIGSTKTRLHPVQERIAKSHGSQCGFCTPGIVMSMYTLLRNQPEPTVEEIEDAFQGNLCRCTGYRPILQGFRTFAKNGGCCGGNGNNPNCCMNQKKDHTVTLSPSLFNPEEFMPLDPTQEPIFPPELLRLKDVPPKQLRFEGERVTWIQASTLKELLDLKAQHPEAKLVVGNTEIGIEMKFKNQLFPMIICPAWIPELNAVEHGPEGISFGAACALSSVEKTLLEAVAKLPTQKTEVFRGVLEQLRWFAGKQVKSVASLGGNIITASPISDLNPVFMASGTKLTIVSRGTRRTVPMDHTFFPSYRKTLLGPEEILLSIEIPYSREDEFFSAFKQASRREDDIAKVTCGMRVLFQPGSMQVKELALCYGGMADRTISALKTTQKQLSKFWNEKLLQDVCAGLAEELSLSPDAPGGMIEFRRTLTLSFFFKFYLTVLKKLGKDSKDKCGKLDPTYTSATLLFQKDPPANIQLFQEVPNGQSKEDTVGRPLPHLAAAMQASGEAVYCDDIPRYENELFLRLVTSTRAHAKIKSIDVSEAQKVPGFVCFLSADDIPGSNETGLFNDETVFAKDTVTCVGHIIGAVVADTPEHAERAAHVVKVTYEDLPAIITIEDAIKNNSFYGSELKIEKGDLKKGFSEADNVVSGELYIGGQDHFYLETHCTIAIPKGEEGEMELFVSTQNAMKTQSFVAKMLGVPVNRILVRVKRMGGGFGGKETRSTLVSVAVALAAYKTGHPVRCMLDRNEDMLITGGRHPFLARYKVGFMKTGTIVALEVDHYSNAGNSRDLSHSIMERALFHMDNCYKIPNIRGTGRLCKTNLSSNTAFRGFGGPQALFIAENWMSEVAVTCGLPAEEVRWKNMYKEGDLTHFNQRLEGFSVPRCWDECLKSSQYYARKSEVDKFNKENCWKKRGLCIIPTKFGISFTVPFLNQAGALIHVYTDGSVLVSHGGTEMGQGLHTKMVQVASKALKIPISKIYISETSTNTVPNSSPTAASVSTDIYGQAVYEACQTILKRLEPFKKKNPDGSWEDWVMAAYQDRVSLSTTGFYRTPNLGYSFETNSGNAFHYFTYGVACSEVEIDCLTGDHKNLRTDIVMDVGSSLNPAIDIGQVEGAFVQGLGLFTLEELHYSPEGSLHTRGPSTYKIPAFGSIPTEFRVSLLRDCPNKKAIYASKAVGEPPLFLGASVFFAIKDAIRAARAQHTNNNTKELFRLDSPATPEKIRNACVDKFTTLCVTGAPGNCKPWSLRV

Structure (SMILES)	IC50 [µM]
C[C@]12CC[C@H](O)[C@](C)(CO[C@@H]3O[C@H](CO)[C@@H](O)[C@H](O)[C@H]3O)[C@@H]1CC[C@]1(C)[C@@H]2CC=C2[C@@H]3C[C@](C)(C(=O)O)[C@@H](O)C[C@]3(C(=O)O)CC[C@]21C	49.2
C=C1CC[C@]2(C(=O)O)CC[C@]3(C)C(=CC[C@@H]4[C@@]5(C)CC[C@H](O[C@@H]6OC[C@H](O)[C@H](O)[C@H]6O[C@@H]6O[C@@H](C)[C@H](O)[C@@H](O)[C@H]6O)C(C)(C)[C@@H]5CC[C@]43C)[C@@H]2C1	18.5
C=C1CC[C@]2(C(=O)O[C@@H]3O[C@H](CO[C@@H]4O[C@H](CO)[C@@H](O)[C@H](O)[C@H]4O)[C@@H](O)[C@H](O)[C@H]3O)CC[C@]3(C)C(=CC[C@@H]4[C@@]5(C)CC[C@H](O[C@@H]6OC[C@H](O)[C@H](O)[C@H]6O)[C@@](C)(CO)[C@@H]5CC[C@]43C)[C@@H]2C1	79.6
C[C@]12C[C@@H](O)[C@H](O)[C@](C)(CO)[C@@H]1CC[C@]1(C)[C@@H]2CC=C2[C@@H]3C[C@](C)(C(=O)O)[C@@H](O)C[C@]3(C(=O)O)CC[C@]21C	> 100
C=C1CC[C@]2(C(=O)O[C@@H]3O[C@H](CO[C@@H]4O[C@H](CO)[C@@H](O[C@@H]5O[C@@H](C)[C@H](O)[C@@H](O)[C@H]5O)[C@H](O)[C@H]4O)[C@@H](O)[C@H](O)[C@H]3O)CC[C@]3(C)C(=CC[C@@H]4[C@@]5(C)CC[C@H](O[C@@H]6OC[C@H](O)[C@H](O[C@@H]7O[C@H](C(=O)O)[C@@H](O)[C@H](O)[C@H]7O)[C@H]6O)[C@@](C)(CO)[C@@H]5CC[C@]43C)[C@@H]2C1	91.3
C=C1CC[C@]2(C(=O)O[C@@H]3O[C@H](CO[C@@H]4O[C@H](CO)[C@@H](O)[C@H](O)[C@H]4O)[C@@H](O)[C@H](O)[C@H]3O)CC[C@]3(C)C(=CC[C@@H]4[C@@]5(C)CC[C@H](O[C@@H]6OC[C@H](O)[C@H](O[C@@H]7OC[C@H](O)[C@H](O)[C@H]7O)[C@H]6O)C(C)(C)[C@@H]5CC[C@]43C)[C@@H]2C1	> 100
C=C1CC[C@@]2(C(=O)O[C@@H]3O[C@H](CO[C@@H]4O[C@H](CO)[C@@H](O)[C@H](O)[C@H]4O)[C@@H](O)[C@H](O)[C@H]3O)CC[C@@]3(C)C(=CC[C@H]4[C@]5(C)CC[C@@H](O[C@@H]6OC[C@H](O)[C@H](O)[C@H]6O[C@@H]6OC[C@H](O)[C@H](O[C@H]7OC[C@@H](O)[C@@H](O)[C@@H]7O)[C@H]6O)C(C)(C)[C@H]5CC[C@@]43C)[C@H]2C1	> 100
C[C@@H]1O[C@@H](O[C@@H]2[C@@H](O[C@H]3CC[C@]4(C)[C@H]5CC=C6[C@@H]7C[C@H](CO)CC[C@]7(C(=O)O[C@H]7O[C@@H](CO[C@@H]8O[C@H](CO)[C@@H](O[C@@H]9O[C@@H](C)[C@H](O)[C@@H](O)[C@H]9O)[C@H](O)[C@H]8O)[C@H](O)[C@@H](O)[C@@H]7O)CC[C@@]6(C)[C@]5(C)CC[C@H]4C3(C)C)OC[C@@H](O)[C@H]2O)[C@H](O)[C@H](O)[C@H]1O	> 100
C=C1CC[C@]2(C(=O)O[C@H]3O[C@@H](CO[C@@H]4O[C@H](CO)[C@@H](O[C@@H]5O[C@@H](C)[C@H](O)[C@@H](O)[C@H]5O)[C@H](O)[C@H]4O)[C@H](O)[C@@H](O)[C@@H]3O)CC[C@]3(C)C(=CC[C@@H]4[C@@]5(C)CC[C@H](O[C@H]6OC[C@@H](O)[C@@H](O[C@H]7OC[C@@H](O)[C@@H](O)[C@@H]7O[C@@H]7OC[C@@H](O)[C@H](O[C@H]8OC[C@@H](O)[C@@H](O)[C@@H]8O)[C@H]7O)[C@@H]6O)C(C)(C)[C@@H]5CC[C@]43C)[C@@H]2C1	> 100
C[C@H]1O[C@@H](O[C@H]2[C@H](OC[C@]3(C)[C@@H]4CC[C@]5(C)[C@H](CC=C6[C@@H]7C[C@](C)(O)[C@@H](O)C[C@]7(C(=O)O)CC[C@]65C)[C@@]4(C)CC[C@@H]3O)O[C@H](CO)[C@@H](O)[C@@H]2O)[C@H](O)[C@@H](O)[C@@H]1O	0.2
C=C1CC[C@]2(C(=O)O[C@H]3O[C@@H](CO[C@H]4O[C@@H](CO)[C@H](O)[C@@H](O)[C@@H]4O)[C@H](O)[C@@H](O)[C@@H]3O)CC[C@]3(C)C(=CC[C@@H]4[C@@]5(C)CC[C@H](O[C@H]6OC[C@@H](O)[C@@H](O)[C@@H]6O[C@@H]6O[C@@H](C)[C@H](O)[C@@H](O[C@H]7OC[C@@H](O)[C@@H](O)[C@@H]7O)[C@H]6O)C(C)(C)[C@@H]5CC[C@]43C)[C@@H]2C1	> 100
